Assay results as given in patent US9682976B2, “Protein kinase C inhibitors and uses thereof” (Rigel Pharmaceuticals, Inc., priority 2012, dated 2017).

test system: PKC mediated IL-2 production; experiment: IL-2 ELISA, human primary T cell, anti CD3+CD28+; type: cell-based; conditions: Homo sapiens, T-cell, 24 h, human primary T cells stimulated with αCD3 and αCD28, 24 hours
In short: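 IL-2 was quantified by ELISA in 24 h supernatants from primary human T cells given a 1 h compound pre-treatment at 37° C. These cells had been expanded from blood mononuclear cells on αCD3/αCD28 with IL-2, and the IL-2 was removed by washing. Stimulation used plate-bound αCD3 ([…]) plus αCD28 (5 μg/ml); the counter assay used PMA (0.5 ng/ml) with ionomycin (0.1 uM) instead.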

| Compound | EC50 |
| --- | --- |
| Cn1nnn(-c2cc(Nc3ncc(C#N)c(N[C@@H]4C[C@@H]5CCCN5C(C)(C)C4)n3)c(F)cc2OC(C)(C)CO)c1=O [Compound 84, 4-((7R,8aS)-octahydro-5,5-dimethylindolizin-7-ylamino)-2-(4-(1-hydroxy-2-methylpropan-2-yloxy)-2-fluoro-5-(4,5-dihydro-4-methyl-5-oxotetrazol-1-yl)phenylamino)pyrimidine-5-carbonitrile] | 100 to 500 nM |
| Cn1nnn(-c2cc(Nc3ncc(F)c(N[C@@H]4C[C@@H]5CCCN5C(C)(C)C4)n3)c(F)cc2OC(C)(C)CO)c1=O [Compound 85, 1-(2-(1-hydroxy-2-methylpropan-2-yloxy)-5-(4-((7R,8aS)-octahydro-5,5-dimethylindolizin-7-ylamino)-5-fluoropyrimidin-2-ylamino)-4-fluorophenyl)-4-methyl-1H-tetrazol-5(4H)-one] | 100 to 500 nM |
| Cn1nnn(-c2cc(Nc3ncc(F)c(N[C@@H]4C[C@@H]5CCCN5C(C)(C)C4)n3)c(F)cc2OC2COC2)c1=O [Compound 88, 1-(5-(4-((7R,8aS)-octahydro-5,5-dimethylindolizin-7-ylamino)-5-fluoropyrimidin-2-ylamino)-4-fluoro-2-(oxetan-3-yloxy)phenyl)-4-methyl-1H-tetrazol-5(4H)-one] | 100 to 500 nM |
| Cn1nnn(-c2cc(Nc3ncc(F)c(N[C@@H]4C[C@@H]5CCCN5C(C)(C)C4)n3)c(F)cc2CCCO)c1=O [Compound 97, 1-(5-(4-((7R,8aS)-octahydro-5,5-dimethylindolizin-7-ylamino)-5-fluoropyrimidin-2-ylamino)-4-fluoro-2-(3-hydroxypropyl)phenyl)-4-methyl-1H-tetrazol-5(4H)-one] | 100 to 500 nM |
| C[C@H](CO)Oc1cc(F)c(Nc2ncc(F)c(N[C@@H]3C[C@@H]4CCCN4C(C)(C)C3)n2)cc1-n1nnn(C)c1=O [Compound 99] | < 100 nM |
| CC1(C)C[C@H](Nc2nc(Nc3ccc(N4CCC5(CC4)COC5)c(C#N)c3)ncc2F)C[C@@H]2CCCN21 [Compound 100, 5-(4-((7R,8aS)-5,5-dimethyloctahydroindolizin-7-ylamino)-5-fluoropyrimidin-2-ylamino)-2-(2-oxa-7-azaspiro[3.5]nonan-7-yl)benzonitrile] | 100 to 500 nM |
| CC1(C)C[C@H](Nc2nc(Nc3ccc(N4CC5(COC5)C4)c(C#N)c3)ncc2F)C[C@@H]2CCCN21 [Compound 101, 5-(4-((7R,8aS)-5,5-dimethyloctahydroindolizin-7-ylamino)-5-fluoropyrimidin-2-ylamino)-2-(2-oxa-6-azaspiro[3.3]heptan-6-yl)benzonitrile] | 100 to 500 nM |
| CC1(C)Oc2ccc(Nc3ncc(F)c(N[C@H]4C[C@H]5CCCN5C(C)(C)C4)n3)cc2-n2nnnc21 [Compound 102, N2-(4,4-dimethyl-4H-benzo[b]tetrazolo[1,5-d][1,4]oxazin-8-yl)-N4-((7S,8aR)-5,5-dimethyloctahydroindolizin-7-yl)-5-fluoropyrimidine-2,4-diamine] | 100 to 500 nM |
| CC1(C)C[C@H](Nc2nc(Nc3ccc(N4CCN(S(C)(=O)=O)CC4)c(C#N)c3)ncc2F)C[C@@H]2CCCN21 [Compound 103, 5-((4-(((7R,8aS)-5,5-Dimethyloctahydroindolizin-7-yl)amino)-5-fluoropyrimidin-2-yl)amino)-2-(4-(methylsulfonyl)piperazin-1-yl)benzonitrile] | 100 to 500 nM |
| CC1(C)C[C@H](Nc2nc(Nc3ccc4c(c3)OCC(=O)N4CC3CC3)ncc2F)C[C@@H]2CCCN21 [Compound 104, 4-(cyclopropylmethyl)-7-((4-(((7R,8aS)-5,5-dimethyloctahydroindolizin-7-yl)amino)-5-fluoropyrimidin-2-yl)amino)-2H-benzo[b][1,4]oxazin-3(4H)-one] | 100 to 500 nM |

The remaining lines, values ahead:

| EC50 | Compound |
| --- | --- |
| 1000 to 10000 nM | Cn1nnn(-c2cc(Nc3ncc(F)c(N[C@@H]4C[C@@H]5CCCN5C(C)(C)C4)n3)c(F)cc2O)c1=O [Compound 89, 1-(5-(4-((7R,8aS)-octahydro-5,5-dimethylindolizin-7-ylamino)-5-fluoropyrimidin-2-ylamino)-4-fluoro-2-hydroxyphenyl)-4-methyl-1H-tetrazol-5(4H)-one] |
| < 100 nM | Cn1nnn(-c2cc(Nc3ncc(F)c(N[C@@H]4C[C@@H]5CCCN5C(C)(C)C4)n3)c(F)cc2Br)c1=O [Compound 91, 1-(5-(4-((7R,8aS)-octahydro-5,5-dimethylindolizin-7-ylamino)-5-fluoropyrimidin-2-ylamino)-2-bromo-4-fluorophenyl)-4-methyl-1H-tetrazol-5(4H)-one] |
| < 100 nM | C=Cc1cc(F)c(Nc2ncc(F)c(N[C@@H]3C[C@@H]4CCCN4C(C)(C)C3)n2)cc1-n1nnn(C)c1=O [Compound 92, 1-(5-(4-((7R,8aS)-octahydro-5,5-dimethylindolizin-7-ylamino)-5-fluoropyrimidin-2-ylamino)-4-fluoro-2-vinylphenyl)-4-methyl-1H-tetrazol-5(4H)-one] |
| 100 to 500 nM | Cn1nnn(-c2cc(Nc3ncc(F)c(N[C@@H]4C[C@@H]5CCCN5C(C)(C)C4)n3)c(F)cc2CCO)c1=O [Compound 93, 1-(5-(4-((7R,8aS)-octahydro-5,5-dimethylindolizin-7-ylamino)-5-fluoropyrimidin-2-ylamino)-4-fluoro-2-(2-hydroxyethyl)phenyl)-4-methyl-1H-tetrazol-5(4H)-one] |
| 100 to 500 nM | CC(O)c1cc(F)c(Nc2ncc(F)c(N[C@@H]3C[C@@H]4CCCN4C(C)(C)C3)n2)cc1-n1nnn(C)c1=O (stereo partly shown) [Compound 94] |
| < 100 nM | CCc1cc(F)c(Nc2ncc(F)c(N[C@@H]3C[C@@H]4CCCN4C(C)(C)C3)n2)cc1-n1nnn(C)c1=O [Compound 95, 1-(5-(4-((7R,8aS)-octahydro-5,5-dimethylindolizin-7-ylamino)-5-fluoropyrimidin-2-ylamino)-2-ethyl-4-fluorophenyl)-4-methyl-1H-tetrazol-5(4H)-one] |
| < 100 nM | Cn1nnn(-c2cc(Nc3ncc(F)c(N[C@@H]4C[C@@H]5CCCN5C(C)(C)C4)n3)c(F)cc2C#CCO)c1=O [Compound 96, 1-(5-(4-((7R,8aS)-octahydro-5,5-dimethylindolizin-7-ylamino)-5-fluoropyrimidin-2-ylamino)-4-fluoro-2-(3-hydroxyprop-1-ynyl)phenyl)-4-methyl-1H-tetrazol-5(4H)-one] |
| 100 to 500 nM | Cn1nnn(-c2cc(Nc3ncc(F)c(N[C@@H]4C[C@@H]5CCCN5C(C)(C)C4)n3)c(F)cc2C#N)c1=O [Compound 98, 4-(4-((7R,8aS)-octahydro-5,5-dimethylindolizin-7-ylamino)-5-fluoropyrimidin-2-ylamino)-5-fluoro-2-(4,5-dihydro-4-methyl-5-oxotetrazol-1-yl)benzonitrile] |

same assay, conditions: human primary T cells stimulated with αCD3 and αCD28, 24 hours

| EC50 | Compound |
| --- | --- |
| 100 to 500 nM | CC(=O)N(C)c1cc(Nc2ncc(F)c(NC3CC(C)(C)N4CCCC4C3C)n2)c(F)cc1C1CC1 (stereo not shown) [Compound 73] |
| 100 to 500 nM | CC1C(Nc2nc(Nc3cc(N(C)C(=O)N(C)C)c(C4CC4)cc3F)ncc2F)CC(C)(C)N2CCCC12 (stereo not shown) [Compound 74] |
| 100 to 500 nM | CC1C(Nc2nc(Nc3cc(OC(F)F)c(C4CC4)cc3F)ncc2F)CC(C)(C)N2CCCC12 (stereo not shown) [Compound 75] |

| Compound | EC50 |
| --- | --- |
| C[C@@H](O)COc1cc(F)c(Nc2ncc(F)c(N[C@@H]3C[C@@H]4CCCN4C(C)(C)C3)n2)cc1-n1nnn(C)c1=O [Compound 82] | < 100 nM |
